Results on 48 compounds are retold here after patent US20210393645A1, “TREATMENT FOR PROGRESSIVE MULTIPLE SCLEROSIS” (UTI LIMITED PARTNERSHIP, priority 2016, published 2021).

Where a name gives a salt, the structure may show the parent alone. Read-outs that look alike come from different tables or passages of the source. Positions of bridges follow the written chain, without caps; N, C: chain ends. Non-standard residues stand in square brackets, D forms with d. Residues, ends and D or L forms follow the SMILES beside them. *: point of attachment. Ileψ(thiazoline)Cys = CC[C@H](C)[C@H](N)C1=N[C@H](C(=O)*)CS1; dOrn = NCCC[C@@H](N)C(=O)O

The test system of the assay is human neurons. The experiment in a line: Iron (FeSO4) mediated neurotoxicity screening, MAP-2 positive neurons counted. Type of assay: cell-based. As to conditions: for viability at 10 µM: Homo sapiens, Neuron, read-out: Drug % control (mean): number of neurons normalized to untreated control. On the procedure:
Human neurons were isolated from brain tissues of therapeutically aborted 15-20 week old fetuses, in accordance with ethics approval of the University of Calgary ethics committee, after written informed consent of the pregnant donors. Neurons were isolated as previously described (Vecil et al., 2000) brain specimens were washed in phosphate buffered saline (PBS) to remove blood, followed by removal of meninges. […] Thereafter, the digestion was stopped by addition of 4 ml fetal calf serum (FCS). […] Cells were cultured in feeding medium of minimal essential medium (MEM) supplemented with 10% fetal bovine serum (FBS), 1 μM sodium pyruvate, 10 μM glutamine, 1× non-essential amino acids, 0.1% dextrose and 1% penicillin/streptomycin (all culture supplements from Invitrogen, Burlington, Canada). […] For experiments, the neuron-enriched cultures were retrypsinized and cells were plated in poly-L-ornithine pre-coated 96-well plates at a density of 100,000 cells/well in 100 μl of the complete medium supplemented with cytosine arabinoside. […] All conditions were performed in quadruplicates. A day later cells were fixed using 4% paraformaldehyde (PFA) and stored in PBS in 4° C.
Briefly, there were 80 compounds located in specific wells on each plate (e. g. B07). […] Each compound was supplied at a concentration of 10 mM dissolved in DMSO.
After filtering with a 0.2 μm filter, FeSO4 was added to cells in a final concentration of 25-50 μM in a volume of 50 μl medium to the cells. Rotenone was dissolved in dimethyl sulfoxide (DMSO) and used in a final concentration of 10 μM.
Staining was performed at room temperature. A blocking buffer was first introduced for 1 h followed by incubation with primary antibody overnight in 4° C.
Cell nuclei were stained with Hoechst S769121 (nuclear yellow). Cells were stored in 4° C. in the dark before imaging.
Images were taken using the automated ImageXpress® imaging system (Molecular Devices, Sunnyvale, Calif.) through a 10x objective microscope lens, displaying 4 or 9 sites per well. […] Cells were defined according to fluorescence intensity and size at different wavelengths. Data from all sites per well were averaged to one data point.
Neurons were pre-incubated with each compound for 1 h followed by application of FeSO4.

[1] abbreviates: drug 10 μM 1 h before FeSO4 25 or 50 μM, MAP-2 neurons after 24 h.

For the compound `NCC(CC(=O)O)c1ccc(Cl)cc1` (stereo not drawn) [BACLOFEN], under setting [1], the viability at 10 µM worked out at 35.8%.
`NCC[C@H](O)C(=O)N[C@@H]1C[C@H](N)[C@@H](O[C@H]2O[C@H](CN)[C@@H](O)[C@H](O)[C@H]2O)[C@H](O)[C@H]1O[C@H]1O[C@H](CO)[C@@H](O)[C@H](N)[C@H]1O.O=S(=O)(O)O.O=S(=O)(O)O` [AMIKACIN SULFATE]: the “Drug % control (mean): number of neurons normalized to untreated control” value under setting [1] is on record as 35.92%.
Regarding `NS(=O)(=O)c1cc(C2(O)NC(=O)c3ccccc32)ccc1Cl` (stereo not drawn) [CHLORTHALIDONE], the viability at 10 µM under setting [1] came to 7.66%.
Same read-out and setting: in the case of `CNC(=C[N+](=O)[O-])NCCSCc1ccc(CN(C)C)o1` [RANITIDINE] it was 40.2%; in that of `O=C(O)Cc1ccccc1Nc1c(Cl)cccc1Cl` [DICLOFENAC SODIUM], 5.92%.
In the case of `CC(=O)/N=c1/sc(S(N)(=O)=O)nn1C` [METHAZOLAMIDE], the viability at 10 µM under setting [1] turned out to be 54.3%.
Turning to `CN(C)CCc1c[nH]c2ccc(CS(=O)(=O)N3CCCC3)cc12` [ALMOTRIPTAN], the viability at 10 µM under setting [1] was 94.4%.
Turning to `COc1ccccc1OCC(O)CO` (stereo not drawn) [GUAIFENESIN], the viability at 10 µM under setting [1] turned out to be 3.28%.
Still for that read-out and setting: the result for `C[C@H](CS)C(=O)N1CCC[C@H]1C(=O)O` [CAPTOPRIL] reads 35.3%.
For the compound `CN(C)CC[C@@H](c1ccc(Cl)cc1)c1ccccn1.O=C(O)/C=C\C(=O)O` [CHLORPHENIRAMINE(S) MALEATE], under setting [1], the “Drug % control (mean): number of neurons normalized to untreated control” value was found to be 52.32%.
On to `COc1ccc2c(c1)[C@]13CCCC[C@@H]1[C@H](C2)N(C)CC3` [DEXTROMETHORPHAN HYDROBROMIDE], for which the viability at 10 µM under setting [1] came to 3.49%.
As for `CCC1(c2ccccc2)C(=O)NCNC1=O` [PRIMIDONE], the viability at 10 µM under setting [1] was 45.2%.
For the compound `NC(=O)C[S+]([O-])C(c1ccccc1)c1ccccc1` (stereo not drawn) [MODAFINIL], under setting [1], the viability at 10 µM came to 43.9%.
For the compound `CC(=O)Oc1ccc(C(c2ccc(OC(C)=O)cc2)c2ccccn2)cc1` [BISACODYL], under setting [1], the viability at 10 µM worked out at 93.3%.
Regarding `NNC(=O)c1ccncc1` [ISONIAZID], the viability at 10 µM under setting [1] was determined as 2.41%.
On the same count and under the same terms, the result for `Cc1ccccc1N1C(=O)c2cc(S(N)(=O)=O)c(Cl)cc2NC1C` (stereo not drawn) [METOLAZONE] reads 69%.
As to `Cc1ccc(C)c(OCCCC(C)(C)C(=O)O)c1` [GEMFIBROZIL], under setting [1], the viability at 10 µM is 5.05%.
For `CC(C)NCC(O)COc1ccc(CC(N)=O)cc1` (stereo not drawn) [ATENOLOL], the viability at 10 µM under setting [1] is 43.4%.
As to `CN(C)CCc1c[nH]c2ccc(C[C@H]3COC(=O)N3)cc12` [ZOLMITRIPTAN], the viability at 10 µM under setting [1] came out at 54.9%.
For `O=C1NC(=O)C(c2ccccc2)(c2ccccc2)N1` [PHENYTOIN SODIUM], the viability at 10 µM under setting [1] was found to be 30.1%.
`CCc1ccc(CCOc2ccc(CC3SC(=O)NC3=O)cc2)nc1` (stereo not drawn) [PIOGLITAZONE HYDROCHLORIDE]: under setting [1], the viability at 10 µM amounted to 84.6%.
As for `NC(=O)NO` [HYDROXYUREA], the viability at 10 µM under setting [1] came to 3.31%.
With `Cc1cn([C@H]2C[C@H](N=[N+]=[N-])[C@@H](CO)O2)c(=O)[nH]c1=O` [ZIDOVUDINE [AZT]], the “Drug % control (mean): number of neurons normalized to untreated control” value under setting [1] came out at 66.49%.
Regarding `CC[C@H](C)[C@H](N)C1=N[C@H](C(=O)N[C@@H](CC(C)C)C(=O)N[C@H](CCC(=O)O)C(=O)N[C@H](C(=O)N[C@H]2CCCCNC(=O)[C@H](CC(N)=O)NC(=O)[C@@H](CC(=O)O)NC(=O)[C@H](Cc3cnc[nH]3)NC(=O)[C@@H](Cc3ccccc3)NC(=O)[C@H]([C@@H](C)CC)NC(=O)[C@@H](CCCN)NC2=O)[C@@H](C)CC)CS1` [BACITRACIN] ({Ileψ(thiazoline)Cys}-L[dE]IK[dOrn]I[dF]H[dD]N; lactam 4-C), the viability at 10 µM under setting [1] stood at 5.04%.
Regarding `C1N2CN3CN1CN(C2)C3` [METHENAMINE], the viability at 10 µM under setting [1] came out at 1.94%.
Turning to `CC[C@H](C)C(=O)O[C@H]1C[C@H](O)C=C2C=C[C@H](C)[C@H](CC[C@@H](O)C[C@@H](O)CC(=O)O)[C@H]21` [PRAVASTATIN SODIUM], the viability at 10 µM under setting [1] was 40.5%.
For the compound `NC[C@H]1CC[C@H](C(=O)O)CC1` [TRANEXAMIC ACID], under setting [1], the viability at 10 µM stood at 36.3%.
Turning to `Nc1nc(=O)c2c([nH]1)NCC(CNc1ccc(C(=O)N[C@@H](CCC(=O)[O-])C(=O)[O-])cc1)N2C=O.[Ca+2]` (stereo partly drawn) [LEUCOVORIN CALCIUM], the “Drug % control (mean): number of neurons normalized to untreated control” value under setting [1] is listed as 24.84%.
Take `OC[C@H]1O[C@@H](O[C@@H]2[C@@H](CO)OC(O)(CO)[C@H]2O)[C@H](O)[C@@H](O)[C@H]1O` (mixture of isomers) [LACTULOSE]: under setting [1], the viability at 10 µM was 80.8%.
On to `COCCc1ccc(OCC(O)CNC(C)C)cc1` (stereo not drawn) [METOPROLOL TARTRATE], for which, under setting [1], the viability at 10 µM came out at 71.5%.
Regarding `Cc1cc(NS(=O)(=O)c2ccc(N)cc2)no1` [SULFAMETHOXAZOLE], the viability at 10 µM under setting [1] amounted to 16.2%.
On to `COc1ccc2cc([C@H](C)C(=O)O)ccc2c1` [NAPROXEN(+)], for which the “Drug % control (mean): number of neurons normalized to untreated control” value under setting [1] was 25.64%.
For the compound `CC(C)NCC(O)COc1cccc2[nH]ccc12` (stereo not drawn) [PINDOLOL], the viability at 10 µM under setting [1] came to 62.6%.
In the case of `CCCNCC(O)COc1ccccc1C(=O)CCc1ccccc1` (stereo not drawn) [PROPAFENONE HYDROCHLORIDE], under setting [1], the viability at 10 µM was determined as 51.3%.
As for `COc1ccc(Cl)cc1C(=O)NCCc1ccc(S(=O)(=O)NC(=O)NC2CCCCC2)cc1` [GLYBURIDE], under setting [1], the viability at 10 µM is 45.2%.
For `CN[C@H](CC(C)C)C(=O)N[C@H]1C(=O)N[C@@H](CC(N)=O)C(=O)N[C@H]2C(=O)N[C@H]3C(=O)N[C@H](C(=O)N[C@H](C(=O)O)c4cc(O)cc(O)c4-c4cc3ccc4O)[C@H](O)c3ccc(c(Cl)c3)Oc3cc2cc(c3O[C@@H]2O[C@H](CO)[C@@H](O)[C@H](O)[C@H]2O[C@H]2C[C@](C)(N)[C@H](O)[C@H](C)O2)Oc2ccc(cc2Cl)[C@H]1O` [VANCOMYCIN HYDROCHLORIDE], under “24 h”, the viability at 10 µM turned out to be 11.7%.
Turning to `CC(=O)OCC(CCn1cnc2cnc(N)nc21)COC(C)=O` [FAMCICLOVIR], the viability at 10 µM under setting [1] was determined as 91%.
Take `CN(C)C(=O)C(CCN1CCC(O)(c2ccc(Cl)cc2)CC1)(c1ccccc1)c1ccccc1` [LOPERAMIDE HYDROCHLORIDE]: under setting [1], the viability at 10 µM amounted to 55.5%.
On the same count and under the same terms, the result for `Nc1ccc(/N=N/c2ccccc2)c(N)n1` [PHENAZOPYRIDINE HYDROCHLORIDE] reads 101%; that for `CCCNC(=O)NS(=O)(=O)c1ccc(Cl)cc1` [CHLORPROPAMIDE], 5.32%; that for `Cc1c(Cl)cccc1Nc1ccccc1C(=O)O` [TOLFENAMIC ACID], 40.3%.
In the case of `O=C(O)c1cc(-c2ccc(F)cc2F)ccc1O` [DIFLUNISAL], the viability at 10 µM under setting [1] worked out at 4.12%.
In the case of `CC(C(=O)O)c1ccc(-c2ccccc2)c(F)c1` (stereo not drawn) [FLURBIPROFEN], under setting [1], the viability at 10 µM was 4.63%.
Consider `CC(=O)Oc1ccccc1C(=O)O` [ASPIRIN], for which the viability at 10 µM under setting [1] worked out at 68.2%.
As to `CC(=O)CCCCn1c(=O)c2c(ncn2C)n(C)c1=O` [PENTOXIFYLLINE], the viability at 10 µM under setting [1] worked out at 66.5%.
For `C[C@@H](CO)NC(=O)[C@@H]1C=C2c3cccc4[nH]cc(c34)C[C@H]2N(C)C1` [ERGONOVINE MALEATE], the viability at 10 µM under setting [1] came to 42.7%.
Regarding `Nc1nc2nc[nH]c2c(=S)[nH]1` [THIOGUANINE], the viability at 10 µM under setting [1] was determined as 21.7%.
`CCC(=O)O[C@H]1[C@H](O[C@@H]2[C@@H](C)[C@H](O[C@H]3C[C@@](C)(OC)[C@@H](O)[C@H](C)O3)[C@@H](C)C(=O)O[C@H](CC)[C@@](C)(O)[C@H](O)[C@@H](C)C(=O)[C@H](C)C[C@@]2(C)O)O[C@H](C)C[C@@H]1N(C)C` [ERYTHROMYCIN ESTOLATE]: the viability at 10 µM under setting [1] stood at 56.7%.
